Measured values: patent US20050130989A1, “N-arylheteroaromatic products compositions containing them and use thereof” (Aventis Pharma S. A., priority 2003, published 2005)
Like-named read-outs stand apart in the source and are kept apart here.

How the values were obtained:
[1] = target: T1, tubulin (Sus scrofa, UniProt P02550+P02554); test: Evaluation of the inhibition of tubulin polymerization (turbidimetry); format: biochemical, pig; conditions: tubulin 10 μm (1 mg/ml), 37° C., turbidity at 350 nm; concentration that inhibits the rate of polymerization by 50%; read-out: Inhibition of tubulin polymerization IC 50 (μm)
T1 construct: Tubulin is purified from pig brain according to published methods; from tissue; host or cells: pig brain
T1 sequence (P02550 whole entry): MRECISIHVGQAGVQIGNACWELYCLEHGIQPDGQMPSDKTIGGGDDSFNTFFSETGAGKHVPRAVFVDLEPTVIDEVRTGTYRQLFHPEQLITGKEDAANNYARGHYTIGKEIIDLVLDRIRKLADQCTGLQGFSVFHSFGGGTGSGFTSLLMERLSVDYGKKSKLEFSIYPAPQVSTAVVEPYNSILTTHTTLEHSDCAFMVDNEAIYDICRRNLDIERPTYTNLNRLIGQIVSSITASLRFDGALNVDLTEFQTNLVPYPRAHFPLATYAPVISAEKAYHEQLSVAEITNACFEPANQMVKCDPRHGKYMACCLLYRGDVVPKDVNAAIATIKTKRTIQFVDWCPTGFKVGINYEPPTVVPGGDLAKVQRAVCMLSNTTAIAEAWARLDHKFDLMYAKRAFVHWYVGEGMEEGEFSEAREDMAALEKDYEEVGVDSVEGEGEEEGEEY
T1 sequence (P02554 whole entry): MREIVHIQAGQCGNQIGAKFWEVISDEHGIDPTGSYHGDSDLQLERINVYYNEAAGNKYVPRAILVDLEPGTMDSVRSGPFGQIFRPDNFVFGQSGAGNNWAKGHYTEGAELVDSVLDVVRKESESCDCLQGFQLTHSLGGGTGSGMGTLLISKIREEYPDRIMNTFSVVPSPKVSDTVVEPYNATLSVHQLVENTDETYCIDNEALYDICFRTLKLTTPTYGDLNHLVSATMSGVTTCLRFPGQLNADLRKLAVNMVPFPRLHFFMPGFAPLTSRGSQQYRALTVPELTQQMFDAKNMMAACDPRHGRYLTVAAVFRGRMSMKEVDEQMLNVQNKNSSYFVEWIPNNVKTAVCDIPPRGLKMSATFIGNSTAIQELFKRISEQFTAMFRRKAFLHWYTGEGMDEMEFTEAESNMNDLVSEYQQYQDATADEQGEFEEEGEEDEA
Procedure: Tubulin is purified from pig brain according to published methods (Shelanski et al., 1973, Proc. Natl. Acad. Sci. USA, 70, 765-768. Weingarten et al., 1975, Proc. Natl. Acad. Sci. USA, 72, 1858-1862). Briefly, the brains are ground and centrifuged in an extraction buffer. The tubulin contained in the supernatant of the extract undergoes two successive cycles of polymerization at 37° C. and depolymerization at 4° C., before being separated from the MAPs (Microtubule Associated Proteins) by chromatography on a phosphocellulose P11 column (Whatman). The tubulin thus isolated is more than 95% pure. It is stored in a buffer known as RB/2 30% glycerol, the composition of which is 50 mM MES-NaOH [2-(N-morpholino)ethanesulfonic acid], pH 6.8; 0.25 mM MgCl2; 0.5 mM EGTA; 30% glycerol (v/v), 0.2 mM GTP (guanosine-5′-triphosphate).
The polymerization of tubulin to microtubules is monitored by turbidimetry as follows: the tubulin is adjusted to a concentration of 10 μm (1 mg/ml) in RB/2 30% glycerol buffer to which 1 mM GTP and 6 mM MgCl2 are added. The polymerization is triggered by an increase in temperature from 6° C. to 37° C. in a cuvette with an optical path length of 1 cm, placed in a UVIKON 931 spectrophotometer (Kontron) equipped with a thermostatically maintained cuvette holder. The increase in the turbidity of the solution is monitored at 350 nm.
The products are dissolved at 10 mM in DMSO and added at variable concentrations (0.5 to 10 μm) to the tubulin solution before polymerization. The IC50 value is defined as the concentration of product that inhibits the rate of polymerization by 50%.

[2] = tested on: HCT116 cells; test: Inhibition of proliferation of the human colon tumor line HCT116 ([14C]-thymidine incorporation); format: cell-based; conditions: 48 hours at 37° C., read-out: Inhibition of HCT116 proliferation IC 50 (μm)
Procedure: The proliferation of HCT116 cells is evaluated by measuring the incorporation of [^14C]-thymidine in the following manner. The HCT 116 cells (obtained from the ATCC) are cultured in a DMEM medium (Gibco) containing 10% fetal calf serum and antibiotics (1% penicillin, 1% streptomycin). To perform the proliferation test, the cells are inoculated in cytostar 96-well microplates (Amersham), at a rate of 5000 cells per well. [^14C]-thymidine (0.1 μCi/well) and the products to be evaluated are then added. Variable concentrations of products up to 10 μm are used; the DMSO (solvent used to dissolve the products) should not exceed 0.5% in the medium. 48 hours after incubation at 37° C., the radioactivity incorporated into the cells is measured by counting the plate in a TRI-LUX counter (Wallac). The IC50 is defined as the concentration of product that reduces the radioactivity by 50% compared with an untreated control. A product whose IC50 is less than 3 μm is considered cytotoxic.

Structure (SMILES)	IC50 [1] [µM]	IC50 ([2]; Homo sapiens, HCT-116, 48 h) [µM]	IC50 [2] [µM]
COc1cccc(-n2nc(C)cc2C(=O)N2CCN(c3cccc4ccccc34)CC2)c1 [3/138]	< 25	20	–
Cc1cc(C(=O)N2CCN(c3cccc(Cl)c3Cl)CC2)n(-c2cccc(Cl)c2)n1 [3/125]	12.5	0.148	–
COc1cccc(-n2nc(C)cc2C(=O)N2CCN(c3ccc4c(c3)OCCO4)CC2)c1 [3/140]	< 25	2.97	–
Cc1ccc(-n2nc(C)cc2C(=O)N2CCN(c3cccc(C(F)(F)F)c3)CC2)cc1 [3/131]	3.1	0.135	–
Cc1cccc(N2CCN(C(=O)c3cc(C)nn3-c3ccc(Cl)cc3)CC2)c1 [3/74]	7.5	0.298	–
Cc1cc(C(=O)N2CCN(c3ccc(Cl)c(Cl)c3)CC2)n(-c2ccc(F)cc2)n1 [3/146]	1.3	0.043	–
O=C(c1cc(-c2cccs2)nn1-c1ccccc1)N1CCN(c2cccc(Cl)c2)CC1 [Example E69, [4-(3-Chlorophenyl)piperazin-1-yl][2-phenyl-5-(thiophen-2-yl)-2H-pyrazol-3-yl]methanone]	1.7	6.15	–
Cc1cc(C(=O)N2CCN(c3cccc(Cl)c3)CC2)n(C2CCCCC2)n1 [Example E48, [4-(3-Chlorophenyl)piperazin-1-yl](2-cyclohexyl-5-methyl-2H-pyrazol-3-yl)-methanone]	3.26	0.489	–
Cc1cc(C(=O)N2CCN(c3ccc(C(F)(F)F)cc3)CC2)n(-c2cccc(Cl)c2)n1 [3/126]	–	8.73	–
COc1ccccc1N1CCN(C(=O)c2cc(C)nn2-c2ccccc2F)CC1 [3/85]	–	0.189	–
COc1ccc(-n2nc(C)cc2C(=O)N2CCN(c3cccc(Cl)c3)CC2)cc1 [3/39]	–	0.734	–
COc1ccccc1N1CCN(C(=O)c2cc(C)nn2-c2ccccc2F)CC1 [3/144]	–	–	0.255
COc1cccc(-n2nc(C)cc2C(=O)N2CCN(c3ccc(C)c(C)c3)CC2)c1 [3/2]	–	0.312	–
Cc1cc(C(=O)N2CCN(c3ccc(Cl)c(Cl)c3)CC2)n(-c2ccccc2)n1 [3/110]	–	0.299	–
COc1ccccc1N1CCN(C(=O)c2cc(C)nn2-c2cccc(Cl)c2)CC1 [3/120]	–	0.04	–
Cc1cc(C(=O)N2CCN(c3cncc(O)c3)CC2)n(-c2ccccc2)n1 [Example E140, [4-(5-hydroxypyrid-3-yl)piperazin-1-yl](5-methyl-2-phenyl-2H-pyrazol-3-yl)-methanone]	16.5	–	–

More lines, now with the values ahead:

IC50 [1] [µM]	IC50 ([2]; Homo sapiens, HCT-116, 48 h) [µM]	IC50 [2] [µM]	Structure (SMILES)
1.5	0.0066	–	COc1ccc(Cl)cc1N1CCN(C(=O)c2cc(C)nn2-c2ccccc2)CC1 [3/83]
1.5	0.014	–	Cc1cc(C(=O)N2CCN(c3cccc(C(F)(F)F)c3)CC2)n(-c2cccc(F)c2)n1 [3/91]
0.8	0.0063	–	Cc1cc(C(=O)N2CCN(c3cccc(F)c3)CC2)n(-c2ccccc2)n1 [3/152]
1.8	0.017	–	Cc1cccc(N2CCN(C(=O)c3cc(C)nn3-c3cccc(F)c3)CC2)c1 [3/19]
1.37	0.0117	–	O=C(c1cc(CO)nn1-c1ccccc1)N1CCN(c2cccc(Cl)c2)CC1 [Example E60, (5-Hydroxymethyl-2-phenyl-2H-pyrazol-3-yl)[4-(3-chlorophenyl)piperazin-1l-yl]methanone]
0.5	0.0041	–	COc1cc(OC)cc(N2CCN(C(=O)c3cc(C=O)nn3-c3ccccc3)CC2)c1 [Example E100, 5-[4-(3,5-Dimethoxyphenyl)piperazine-1-carbonyl]-1-phenyl-1H-pyrazole-3-carboxaldehyde]
1.8	0.0036	–	COc1cccc(N2CCN(C(=O)c3cc(C)nn3-c3cccc(F)c3)CC2)c1 [3/96]
